Among the test systems are HOP-92 NSCLC; M14 melanoma; SN12C renal; ACHN renal; BT-549 breast; MCF7 breast; COLO 205 colon; SK-OV-3 ovarian; NCI-H23 lung; HCC-2998 colon.
Assay in all cases: DTP human tumour cell line panel, 48 h

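Values below derive from 48-hour exposures of cells grown in 96-well plates, with endpoints linearly interpolated between the two concentrations bracketing the appropriate inhibition level. GI50 = concentration required for 50% inhibition of growth. TGI denotes the concentration required for complete inhibition of growth.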

As for `C=C1[C@H](O)C[C@@H](C(C)C(O)CC=C(C)C)[C@@H](O)[C@@H]2C(C)=CC[C@@H]12` (stereo partly drawn), the GI50 in the test on HOP-92 NSCLC, with M14 melanoma, in the test on SN12C renal, with ACHN renal, with BT-549 breast and in the test on MCF7 breast was above 100 µM in each case. Moreover, the GI50 in the test on COLO 205 colon, in the test on SK-OV-3 ovarian and in the test on NCI-H23 lung was above 100 µM throughout. Besides, the concentration for total growth inhibition (TGI) in the test with HOP-92 NSCLC, in the test with M14 melanoma, in the test with SN12C renal, in the test with ACHN renal, in the test on BT-549 breast and in the test with MCF7 breast was above 100 µM throughout. The total growth inhibition concentration (TGI) in the test on COLO 205 colon, in the test on SK-OV-3 ovarian and in the test on NCI-H23 lung was above 100 µM throughout.

Regarding `COc1ccc(NC(=O)CC2SC(=Nc3ccc(Cl)cc3C)NC2=O)c([N+](=O)[O-])c1` (stereo not drawn), the TGI in the test on HOP-92 NSCLC, in the test on M14 melanoma, in the test with HCC-2998 colon, with SN12C renal, with ACHN renal and in the test with NCI-H23 lung was above 100 µM each time.

Turning to `O=S1c2ccccc2N=C(c2cccs2)CC1c1ccccc1O` (stereo not drawn), the TGI in the test with M14 melanoma, with HCC-2998 colon, with SN12C renal, with ACHN renal, with COLO 205 colon and with SK-OV-3 ovarian was above 100 µM in each case. The compound also came in with a TGI in the test with NCI-H23 lung above 100 µM.

Regarding `S=C1NC(c2ccccc2)NC(c2ccccc2)S1` (stereo not drawn), the concentration for total growth inhibition (TGI) with HOP-92 NSCLC, in the test on M14 melanoma, in the test with SN12C renal, with ACHN renal, in the test on BT-549 breast and with MCF7 breast was above 100 µM each time. For the same compound, the total growth inhibition concentration (TGI) in the test on COLO 205 colon, with SK-OV-3 ovarian and in the test with NCI-H23 lung was above 100 µM in each case.

With `CCCCCCCN(CCCCCCC)C(=N)c1ccc(OC)c2ccccc12`, the GI50 with HOP-92 NSCLC is 0.603 µM; in the test with M14 melanoma, 1.53 µM; with SN12C renal it was 1.24 µM; in the test on ACHN renal, 1.32 µM; in the test on COLO 205 colon, 1.01 µM; in the test on SK-OV-3 ovarian, 1.66 µM. The GI50 with NCI-H23 lung is 1.1 µM. For the same compound, the TGI in the test with HOP-92 NSCLC came to 2.02 µM; in the test on M14 melanoma, 2.95 µM; with SN12C renal it was 2.76 µM; in the test on ACHN renal it was 2.81 µM; in the test on COLO 205 colon, 2.35 µM; in the test with SK-OV-3 ovarian, 3.14 µM. Besides, in the test on NCI-H23 lung, the total growth inhibition concentration (TGI) was determined as 2.53 µM.

With `CC1O[C@@H]2CCCCC(=O)[C@]2(C)[C@H]1C` (stereo partly drawn), the TGI in the test with HOP-92 NSCLC, with M14 melanoma, with HCC-2998 colon, in the test on SN12C renal, in the test on ACHN renal and with COLO 205 colon was above 100 µM each time. The concentration for total growth inhibition (TGI) in the test on SK-OV-3 ovarian is above 100 µM.

For the compound `Cc1ccccc1C1SCc2nc3ccccc3n21` (stereo not drawn), the TGI is 49.5 µM in the test with HOP-92 NSCLC; above 100 µM in the test on HCC-2998 colon; above 100 µM with SN12C renal; above 100 µM with ACHN renal; above 100 µM in the test on COLO 205 colon; above 100 µM in the test on SK-OV-3 ovarian. In the test with NCI-H23 lung, this compound had a TGI above 100 µM.

As for `O=C(NNC(=O)/C(=C/c1cccc([N+](=O)[O-])c1)NC(=O)c1ccccc1)Nc1ccc(Cl)cc1`, the total growth inhibition concentration (TGI) with HOP-92 NSCLC was 40.4 µM; with M14 melanoma it was 26.9 µM; in the test on HCC-2998 colon it was 25.8 µM; in the test on SN12C renal, 28.2 µM; in the test on ACHN renal, 31.8 µM; with COLO 205 colon, 26.8 µM. Also, the TGI was 32.1 µM with SK-OV-3 ovarian and 30.3 µM in the test on NCI-H23 lung.

For `CC(C)(C)c1cc([Si](C)(C)C)c(C#N)c([Si](C)(C)C)c1`, the TGI in the test on HOP-92 NSCLC, in the test on M14 melanoma, with HCC-2998 colon, in the test on SN12C renal, in the test with ACHN renal and in the test on COLO 205 colon was above 100 µM each time. Also, the total growth inhibition concentration (TGI) in the test with SK-OV-3 ovarian and with NCI-H23 lung was above 100 µM in each case.

As for `Oc1ccc(Cl)cc1N=Nc1c(O)ccc2ccccc12`, the TGI with HOP-92 NSCLC, in the test with M14 melanoma, in the test on SN12C renal, with ACHN renal, in the test with BT-549 breast and with COLO 205 colon was above 100 µM each time. The TGI with SK-OV-3 ovarian and in the test with NCI-H23 lung was above 100 µM throughout.

Take `O=c1[nH]c(C2CCCCC2)nc2ccc(Cl)cc12`: the TGI in the test with HOP-92 NSCLC, in the test on HCC-2998 colon, with SN12C renal, in the test on ACHN renal, in the test on COLO 205 colon and in the test on SK-OV-3 ovarian was above 100 µM throughout. Besides, in the test with NCI-H23 lung, the TGI is above 100 µM.

Take `O=Cc1cc2sc(C=O)cc2s1`: the concentration for total growth inhibition (TGI) in the test on HOP-92 NSCLC, in the test with M14 melanoma, in the test with HCC-2998 colon, in the test with SN12C renal, in the test on COLO 205 colon and in the test with SK-OV-3 ovarian was above 100 µM throughout. The TGI in the test on NCI-H23 lung was above 100 µM.

Consider `O=C(Nc1ccc(-c2cn3ccccc3n2)cc1)c1cc(Br)ccc1O`, for which the TGI in the test with HOP-92 NSCLC, in the test with M14 melanoma, in the test with SN12C renal, in the test on ACHN renal, with BT-549 breast and with MCF7 breast was above 100 µM in each case. The total growth inhibition concentration (TGI) in the test with COLO 205 colon, in the test on SK-OV-3 ovarian and with NCI-H23 lung was above 100 µM each time.

For the compound `O=C1/C(=C/c2ccc(C(=O)O)cc2)CNC/C1=C\c1ccc(C(=O)O)cc1`, the concentration for total growth inhibition (TGI) in the test with HOP-92 NSCLC, in the test on M14 melanoma, in the test on HCC-2998 colon, in the test on SN12C renal, with ACHN renal and in the test on COLO 205 colon was above 100 µM each time. Further, the TGI with SK-OV-3 ovarian and with NCI-H23 lung was above 100 µM each time.

Source of the values: PubChem BioAssay (NCI).
